The source of these data is patent US10780090B2, “Heteroaryl compounds useful as inhibitors of SUMO activating enzyme” (Millennium Pharmaceuticals, Inc., priority 2014, dated 2020).

The inhibition is the drop in the measured response relative to a control, in per cent. Broadly, the IC50 is the concentration that gives 50% inhibition.

For the experiment, the target named is recombinant human SAE enzyme (Homo sapiens (Human), UniProt Q9UBT2). The experiment can be described thus: SAE HTRF enzyme assay. The format is biochemical. Conditions: for inhibition at 0.111 µM: Concentration 0.111 μM, read-out: Percent Inhibition; for IC50: class symbols A/B/C. An outline of the steps:
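0.11 nM SAE incubated with 0.5 μM ATP, 0.01 μM Ubc9-GST and 0.125 μM Sumo-Flag in HEPES pH 7.5, MgCl2, GSH, BSA, ±inhibitor, 105 min at 24° C. EDTA stop; Eu-cryptate anti-Flag/XL-APC anti-GST HTRF read after 2 h. Values given as single-concentration % inhibition or IC50.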
(Time-resolved FRET reads energy transfer from a long-lived donor to a nearby acceptor.)

Sequence of recombinant human SAE enzyme (Q9UBT2 whole entry): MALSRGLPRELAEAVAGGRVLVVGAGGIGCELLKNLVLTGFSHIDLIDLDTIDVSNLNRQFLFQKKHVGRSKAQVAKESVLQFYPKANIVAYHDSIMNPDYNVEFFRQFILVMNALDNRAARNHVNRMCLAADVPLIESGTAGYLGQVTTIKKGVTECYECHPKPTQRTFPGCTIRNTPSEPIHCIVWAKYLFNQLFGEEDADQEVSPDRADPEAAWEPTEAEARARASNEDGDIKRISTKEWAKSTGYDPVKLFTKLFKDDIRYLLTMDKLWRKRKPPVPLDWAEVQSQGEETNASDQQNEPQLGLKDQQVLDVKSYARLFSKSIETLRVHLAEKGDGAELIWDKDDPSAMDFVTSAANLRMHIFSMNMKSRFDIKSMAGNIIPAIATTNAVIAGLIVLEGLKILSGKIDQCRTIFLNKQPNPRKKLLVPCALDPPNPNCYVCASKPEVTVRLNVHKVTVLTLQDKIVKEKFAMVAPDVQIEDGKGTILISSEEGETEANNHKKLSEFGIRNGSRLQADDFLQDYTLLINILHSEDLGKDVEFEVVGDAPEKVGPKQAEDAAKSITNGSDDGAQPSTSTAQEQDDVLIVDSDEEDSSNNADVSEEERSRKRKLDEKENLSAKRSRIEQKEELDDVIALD
Sequence of recombinant human SAE enzyme (Q9UBE0 whole entry partner): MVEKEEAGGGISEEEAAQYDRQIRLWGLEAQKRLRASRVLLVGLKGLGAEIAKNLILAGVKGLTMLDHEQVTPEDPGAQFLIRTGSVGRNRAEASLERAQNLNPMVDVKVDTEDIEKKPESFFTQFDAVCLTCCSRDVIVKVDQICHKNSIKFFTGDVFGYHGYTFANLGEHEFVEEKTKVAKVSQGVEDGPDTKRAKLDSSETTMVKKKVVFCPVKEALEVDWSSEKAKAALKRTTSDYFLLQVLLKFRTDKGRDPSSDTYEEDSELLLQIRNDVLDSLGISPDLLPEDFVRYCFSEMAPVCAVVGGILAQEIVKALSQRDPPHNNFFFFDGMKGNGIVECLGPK

With `NS(=O)(=O)OC[C@H]1C[C@@H](Nc2ncncc2C(=O)c2cc(Cn3cc(C(F)(F)F)cn3)cs2)C[C@@H]1O` [I-130, [(1R,2S,4R)-2-hydroxy-4-({5-[(4-{[4-(trifluoromethyl)-1H-pyrazol-1-yl]methyl}-2-thienyl)carbonyl]pyrimidin-4-yl}amino)cyclopentyl]methyl sulfamate], the inhibition at 0.111 µM is 97% and the IC50 is below 10 nM.

`Cc1ccccc1OCc1csc(C(=O)c2cncnc2N[C@@H]2C[C@H](COS(N)(=O)=O)[C@@H](O)C2)c1` [I-131, [(1R,2S,4R)-2-hydroxy-4-{[5-({4-[(2-methylphenoxy)methyl]-2-thienyl}carbonyl)pyrimidin-4-yl]amino}cyclopentyl]methyl sulfamate]: the inhibition at 0.111 µM came to 96% and the IC50 is below 10 nM.

On to `Cc1ccc2ccn(Cc3csc(C(=O)c4cncnc4N[C@@H]4C[C@H](COS(N)(=O)=O)[C@@H](O)C4)c3)c2c1` [I-132, [(1R,2S,4R)-2-hydroxy-4-{[5-({4-[(6-methyl-1H-indol-1-yl)methyl]-2-thienyl}carbonyl)pyrimidin-4-yl]amino}cyclopentyl]methyl sulfamate], for which the inhibition at 0.111 µM came out at 96% and the IC50 is below 10 nM.

As for `NS(=O)(=O)OC[C@H]1C[C@@H](Nc2ncncc2C(=O)c2ccc(-c3ccccc3)o2)[C@H](O)[C@@H]1O` [I-134, [(1R,2R,3S,4R)-2,3-dihydroxy-4-{[5-(5-phenyl-2-furoyl)pyrimidin-4-yl]amino}cyclopentyl]methyl sulfamate], the inhibition at 0.111 µM is 94% and the concentration for half-maximal inhibition (IC50) was below 10 nM.

For the molecule `Cc1sc(C(=O)c2cncnc2N[C@@H]2C[C@H](COS(N)(=O)=O)[C@@H](O)C2)cc1Sc1ccccc1` [I-137, {(1R,2S,4R)-2-hydroxy-4-[(5-{[5-methyl-4-(phenylsulfanyl)-2-thienyl]carbonyl}pyrimidin-4-yl)amino]cyclopentyl}methyl sulfamate], the inhibition at 0.111 µM was determined as 95%.

With `CN(Cc1csc(C(=O)c2cncnc2N[C@@H]2C[C@H](COS(N)(=O)=O)[C@@H](O)C2)c1)c1cccc(Cl)c1` [I-138, [(1R,2S,4R)-4-({5-[(4-{[(3-Chlorophenyl)(methyl)amino]methyl}-2-thienyl)carbonyl]pyrimidin-4-yl}amino)-2-hydroxycyclopentyl]methyl sulfamate], the inhibition at 0.111 µM was determined as 96% and the IC50 was below 10 nM.

As for `NS(=O)(=O)OC[C@H]1C[C@@H](Nc2ncncc2C(=O)c2cc(Cc3ccccc3)c(Cc3ccccc3)o2)C[C@@H]1O` [I-139, [(1R,2S,4R)-4-{[5-(4,5-dibenzyl-2-furoyl)pyrimidin-4-yl]amino}-2-hydroxycyclopentyl]methyl sulfamate], the inhibition at 0.111 µM came to 94% and the IC50 was below 10 nM.

Consider `NS(=O)(=O)OC[C@H]1C[C@@H](Nc2ncncc2C(=O)c2cc(CC3=CCCCC3)cs2)C[C@@H]1O` [I-140, {(1R,2S,4R)-4-[(5-{[4-(Cyclohex-1-en-1-ylmethyl)-2-thienyl]carbonyl}pyrimidin-4-yl)amino]-2-hydroxycyclopentyl}methyl sulfamate], for which the inhibition at 0.111 µM was 93% and the half-inhibitory concentration (IC50) is below 10 nM.

For `NS(=O)(=O)OC[C@H]1C[C@@H](Nc2ncncc2C(=O)c2cc(CO)c(Cc3cccc(Cl)c3)s2)C[C@@H]1O` [I-142, {(1R,2S,4R)-4-[(5-{[5-(3-chlorobenzyl)-4-(hydroxymethyl)-2-thienyl]carbonyl}pyrimidin-4-yl)amino]-2-hydroxycyclopentyl}methyl sulfamate], the inhibition at 0.111 µM came out at 94% and the IC50 was below 10 nM.

In the case of `Cc1sc(C(=O)c2cncnc2N[C@@H]2C[C@H](COS(N)(=O)=O)[C@@H](O)C2)cc1Sc1cccc(Cl)c1` [I-143, [(1R,2S,4R)-4-{[5-({4-[(3-chlorophenyl)sulfanyl]-5-methyl-2-thienyl}carbonyl)pyrimidin-4-yl]amino}-2-hydroxycyclopentyl]methyl sulfamate], the inhibition at 0.111 µM was found to be 94% and the IC50 was below 10 nM.

Regarding `NS(=O)(=O)OC[C@H]1C[C@@H](Nc2ncncc2C(=O)c2cc(Cc3ccccc3)c(Cc3ccccc3)s2)C[C@@H]1O` [I-144, [(1R,2S,4R)-4-({5-[(4,5-Dibenzyl-2-thienyl)carbonyl]pyrimidin-4-yl}amino)-2-hydroxycyclopentyl]methyl sulfamate], the inhibition at 0.111 µM is 93% and the IC50 is below 10 nM.

`Cc1sc(C(=O)c2cncnc2N[C@@H]2C[C@H](COS(N)(=O)=O)[C@@H](O)C2)cc1Sc1cccc(C(F)(F)F)c1` [I-145, [(1R,2S,4R)-2-hydroxy-4-({5-[(5-methyl-4-{[3-(trifluoromethyl)phenyl]sulfanyl}-2-thienyl)carbonyl]pyrimidin-4-yl}amino)cyclopentyl]methyl sulfamate]: the inhibition at 0.111 µM turned out to be 93% and the IC50 was below 10 nM.

For the molecule `NS(=O)(=O)OC[C@H]1C[C@@H](Nc2ncncc2C(=O)c2cc(CCc3cccc(Cl)c3)cs2)C[C@@H]1O` [I-146, [(1R,2S,4R)-4-{[5-({4-[2-(3-chlorophenyl)ethyl]-2-thienyl}carbonyl)pyrimidin-4-yl]amino}-2-hydroxycyclopentyl]methyl sulfamate], the inhibition at 0.111 µM was determined as 94% and the half-maximal inhibitory concentration (IC50) is below 10 nM.

As for `NS(=O)(=O)OC[C@H]1C[C@@H](Nc2ncncc2C(=O)c2cc(CSc3ccccc3Cl)cs2)C[C@@H]1O` [I-147, [(1R,2S,4R)-4-({5-[(4-{[(2-chlorophenyl)sulfanyl]methyl}-2-thienyl)carbonyl]pyrimidin-4-yl}amino)-2-hydroxycyclopentyl]methyl sulfamate], the inhibition at 0.111 µM is 94% and the IC50 is below 10 nM.

Take `Cc1sc(C(=O)c2cncnc2N[C@@H]2C[C@H](COS(N)(=O)=O)[C@@H](O)C2)cc1Cn1cc(Br)cc1C#N` [I-148, [(1R,2S,4R)-4-{[5-({4-[(4-bromo-2-cyano-1H-pyrrol-1-yl)methyl]-5-methyl-2-thienyl}carbonyl)pyrimidin-4-yl]amino}-2-hydroxycyclopentyl]methyl sulfamate]: the inhibition at 0.111 µM was determined as 91% and the half-inhibitory concentration (IC50) was below 10 nM.

On to `NS(=O)(=O)OC[C@H]1C[C@@H](Nc2ncncc2C(=O)c2cc(Cc3cccc(Cl)c3Cl)cs2)C[C@@H]1O` [I-155, {(1R,2S,4R)-4-[(5-{[4-(2,3-dichlorobenzyl)-2-thienyl]carbonyl}pyrimidin-4-yl)amino]-2-hydroxycyclopentyl}methyl sulfamate], for which the inhibition at 0.111 µM was 92% and the 50% inhibitory concentration (IC50) is below 10 nM.

On to `CCOc1ccccc1OCc1csc(C(=O)c2cncnc2N[C@@H]2C[C@H](COS(N)(=O)=O)[C@@H](O)C2)c1` [I-156, [(1R,2S,4R)-4-{[5-({4-[(2-ethoxyphenoxy)methyl]-2-thienyl}carbonyl)pyrimidin-4-yl]amino}-2-hydroxycyclopentyl]methyl sulfamate], for which the inhibition at 0.111 µM stood at 92% and the 50% inhibitory concentration (IC50) is below 10 nM.

For the molecule `NS(=O)(=O)OC[C@H]1C[C@@H](Nc2ncncc2C(=O)c2cc(Cc3ccc(Cl)cc3)cs2)C[C@@H]1O` [I-157, {(1R,2S,4R)-4-[(5-{[4-(4-chlorobenzyl)-2-thienyl]carbonyl}pyrimidin-4-yl)amino]-2-hydroxycyclopentyl}methyl sulfamate], the inhibition at 0.111 µM is 92%.
